Laboratory results published in paper PMC8822749, “Ionotropic receptors in the turnip moth Agrotis segetum respond to repellent medium-chain fatty acids” (BMC Biology, 2022).

How the values were obtained:
Assay in all cases: two-electrode voltage clamp, Xenopus oocytes
Assay type in all cases: cell-based
AsegIR75q.1/AsegIR8a [1] = biological target: T1, AsegIR75q.1/AsegIR8a (Agrotis segetum, UniProt Z9J2I4KL46); conditions: agonist, weak; co-expressed with AsegIR8a; -80 mV; pH 7.6; 0.1% DMSO; 100 μM
T1 construct: full-length cDNA in pCS2+, cRNA co-injected with AsegIR8a cRNA in Xenopus laevis oocytes; with Ionotropic receptor 8a
T1 sequence (Z9J2I4KL46 1-637): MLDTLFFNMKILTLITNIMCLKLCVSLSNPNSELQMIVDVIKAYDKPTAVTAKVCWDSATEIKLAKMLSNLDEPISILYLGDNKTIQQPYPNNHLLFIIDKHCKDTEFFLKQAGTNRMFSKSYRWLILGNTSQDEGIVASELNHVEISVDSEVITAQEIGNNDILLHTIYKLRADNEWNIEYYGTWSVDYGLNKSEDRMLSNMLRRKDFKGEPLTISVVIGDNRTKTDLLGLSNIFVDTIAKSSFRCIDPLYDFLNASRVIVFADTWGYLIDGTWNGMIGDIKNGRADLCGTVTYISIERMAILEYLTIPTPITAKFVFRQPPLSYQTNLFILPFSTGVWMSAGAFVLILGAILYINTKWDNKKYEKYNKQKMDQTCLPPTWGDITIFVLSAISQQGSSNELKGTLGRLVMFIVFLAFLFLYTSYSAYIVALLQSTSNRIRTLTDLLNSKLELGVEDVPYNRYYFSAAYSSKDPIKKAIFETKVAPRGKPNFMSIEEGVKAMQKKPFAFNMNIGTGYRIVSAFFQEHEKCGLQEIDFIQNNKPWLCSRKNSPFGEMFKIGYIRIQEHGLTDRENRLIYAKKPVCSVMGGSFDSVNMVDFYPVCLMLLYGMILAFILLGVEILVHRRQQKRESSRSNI

AsegIR75q.1/AsegIR8a [2] = biological target: T1, AsegIR75q.1/AsegIR8a; conditions: agonist; co-expressed with AsegIR8a; -80 mV; pH 7.6; 0.1% DMSO; dose-response
AsegIR75p.1/AsegIR8a = biological target: T2, AsegIR75p.1/AsegIR8a (Agrotis segetum, UniProt Z9OWS8C5E7); conditions: agonist; co-expressed with AsegIR8a; -80 mV; pH 7.6; 0.1% DMSO; 100 μM and dose-response
T2 construct: full-length cDNA in pCS2+, cRNA co-injected with AsegIR8a cRNA in Xenopus laevis oocytes; with Ionotropic receptor 8a
T2 sequence (Z9OWS8C5E7 1-676): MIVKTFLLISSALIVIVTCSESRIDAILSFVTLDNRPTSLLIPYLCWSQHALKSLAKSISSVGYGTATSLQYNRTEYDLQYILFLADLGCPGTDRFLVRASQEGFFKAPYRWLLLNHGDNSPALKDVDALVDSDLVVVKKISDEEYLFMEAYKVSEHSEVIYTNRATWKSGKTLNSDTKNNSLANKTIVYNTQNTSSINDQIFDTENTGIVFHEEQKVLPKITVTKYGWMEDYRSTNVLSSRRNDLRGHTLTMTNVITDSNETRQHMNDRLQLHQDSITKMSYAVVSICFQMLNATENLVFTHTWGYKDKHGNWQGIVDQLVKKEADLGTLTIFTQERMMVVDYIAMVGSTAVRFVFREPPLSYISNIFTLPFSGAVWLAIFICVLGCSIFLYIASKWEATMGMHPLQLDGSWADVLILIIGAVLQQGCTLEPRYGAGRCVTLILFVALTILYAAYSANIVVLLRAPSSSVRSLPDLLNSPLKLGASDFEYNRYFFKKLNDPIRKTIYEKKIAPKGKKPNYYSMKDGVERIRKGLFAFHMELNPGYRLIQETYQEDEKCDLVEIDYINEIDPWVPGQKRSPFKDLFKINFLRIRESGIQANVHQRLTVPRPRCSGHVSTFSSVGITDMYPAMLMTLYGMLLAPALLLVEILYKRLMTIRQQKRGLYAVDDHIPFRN

| Structure (SMILES) | two-electrode voltage clamp, Xenopus oocytes (AsegIR75q.1/AsegIR8a [1]) | two-electrode voltage clamp, Xenopus oocytes (AsegIR75p.1/AsegIR8a) | further results |
| --- | --- | --- | --- |
| CCCCCCC(=O)O [heptanoic acid] | This receptor also responded slightly to heptanoic acid and octanal |  |  |
| CCCCCCCCC(=O)O [nonanoic acid] |  |  | threshold concentration (AsegIR75q.1/AsegIR8a [2]): 1 µM |
| CCCCCCCC=O [octanal] | This receptor also responded slightly to heptanoic acid and octanal |  |  |
| CC/C=C\CCO [(Z)-3-hexenol] |  | hexanoic acid, followed by (Z)-3-hexenol, (E)-2-hexenal, and hexanal |  |
| CCCCCC(=O)O [hexanoic acid] |  | The strongest response was elicited by hexanoic acid |  |
